# Measured values taken from patent publication US6358885B1, “Substituted phenylheterocyclic herbicides” (Mississippi State University, priority 1992, dated 2002).
# Assays:
# Test in all cases: Test G preemergence/postemergence greenhouse plant response rating 0 to 100
# annual bluegrass = format: in vivo, Poa annua; conditions: 0 to 100 scale
# In short: (§1)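 Greenhouse pots, one species each; non-phytotoxic solvent vehicle. Read-out: visual injury vs untreated, 13–21 DAT. Dash denotes no result.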
# bermudagrass = format: in vivo, Cynodon dactylon; conditions: 0 to 100 scale
# In short: as §1
# broadleaf signalgrass = format: in vivo, Brachiaria plantaginea; conditions: 0 to 100 scale
# In short: as §1
# common purslane = format: in vivo, Portulaca oleracea; conditions: 0 to 100 scale
# In short: as §1
# common ragweed = format: in vivo, Ambrosia elatior; conditions: 0 to 100 scale
# In short: as §1
# dallisgrass = format: in vivo, Paspalum dilatatum; conditions: 0 to 100 scale
# In short: as §1
# goosegrass = format: in vivo, Eleusine indica; conditions: 0 to 100 scale
# In short: as §1
# guineagrass = format: in vivo, Panicum maximum; conditions: 0 to 100 scale
# In short: as §1
# itchgrass = format: in vivo, Rottboellia exaltata; conditions: 0 to 100 scale
# In short: as §1
# johnsongrass = format: in vivo, Sorghum halepense; conditions: 0 to 100 scale
# In short: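 Scoring: visual injury at 13 to 21 days post-application, compared with untreated controls. Planting: one species per pot in greenhouse medium. Dosing: compound in non-phytotoxic solvent, within one day of sowing for preemergence or at 2–4 leaves for postemergence.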
# large crabgrass = format: in vivo, Digitaria sanguinalis; conditions: 0 to 100 scale
# In short: as §1
# peanut = format: in vivo, Arachis hypoagaea; conditions: 0 to 100 scale
# In short: as §1
# pitted morningglory = format: in vivo, Ipomoea lacunosa; conditions: 0 to 100 scale
# In short: as §1
# sandbur = format: in vivo, Cenchrus echinatus; conditions: 0 to 100 scale
# In short: as §1
# smooth crabgrass = format: in vivo, Digitaria ischaemum; conditions: 0 to 100 scale
# In short: as §1
# yellow nutsedge = format: in vivo, Cyperus esculentus; conditions: Rate 125 g/ha, 0 to 100 scale
# In short: as §1
smiles,measurement,setting,value
COc1cc(-c2nn3c(c2Cl)CCCC3)c(F)cc1Cl [Compound 29],"Plant response rating, Ann Bluegrass","annual bluegrass; POSTEMERGENCE, Rate 125 g/ha",0
same,"Plant response rating, Ann Bluegrass","annual bluegrass; POSTEMERGENCE, Rate 250 g/ha",0
same,"Plant response rating, Ann Bluegrass","annual bluegrass; PREEMERGENCE, Rate 125 g/ha",0
same,"Plant response rating, Ann Bluegrass","annual bluegrass; PREEMERGENCE, Rate 250 g/ha",0
same,"Plant response rating, Bermudagrass","bermudagrass; POSTEMERGENCE, Rate 125 g/ha",0
same,"Plant response rating, Bermudagrass","bermudagrass; POSTEMERGENCE, Rate 250 g/ha",0
same,"Plant response rating, Bermudagrass","bermudagrass; PREEMERGENCE, Rate 125 g/ha",0
same,"Plant response rating, Bermudagrass","bermudagrass; PREEMERGENCE, Rate 250 g/ha",50
same,"Plant response rating, Brdlf Sgnlgrass","broadleaf signalgrass; POSTEMERGENCE, Rate 125 g/ha",0
same,"Plant response rating, Brdlf Sgnlgrass","broadleaf signalgrass; POSTEMERGENCE, Rate 250 g/ha",0
same,"Plant response rating, Brdlf Sgnlgrass","broadleaf signalgrass; PREEMERGENCE, Rate 125 g/ha",0
same,"Plant response rating, Brdlf Sgnlgrass","broadleaf signalgrass; PREEMERGENCE, Rate 250 g/ha",0
same,"Plant response rating, Cmn Purslane","common purslane; POSTEMERGENCE, Rate 125 g/ha",90
same,"Plant response rating, Cmn Purslane","common purslane; POSTEMERGENCE, Rate 250 g/ha",80
same,"Plant response rating, Cmn Purslane","common purslane; PREEMERGENCE, Rate 125 g/ha",0
same,"Plant response rating, Cmn Purslane","common purslane; PREEMERGENCE, Rate 250 g/ha",100
same,"Plant response rating, Cmn Ragweed","common ragweed; POSTEMERGENCE, Rate 125 g/ha",20
same,"Plant response rating, Cmn Ragweed","common ragweed; POSTEMERGENCE, Rate 250 g/ha",60
same,"Plant response rating, Cmn Ragweed","common ragweed; PREEMERGENCE, Rate 125 g/ha",20
same,"Plant response rating, Cmn Ragweed","common ragweed; PREEMERGENCE, Rate 250 g/ha",40
same,"Plant response rating, Dallisgrass","dallisgrass; POSTEMERGENCE, Rate 125 g/ha",0
same,"Plant response rating, Dallisgrass","dallisgrass; POSTEMERGENCE, Rate 250 g/ha",0
same,"Plant response rating, Dallisgrass","dallisgrass; PREEMERGENCE, Rate 125 g/ha",80
same,"Plant response rating, Dallisgrass","dallisgrass; PREEMERGENCE, Rate 250 g/ha",90
same,"Plant response rating, Goosegrass","goosegrass; POSTEMERGENCE, Rate 125 g/ha",0
same,"Plant response rating, Goosegrass","goosegrass; POSTEMERGENCE, Rate 250 g/ha",0
same,"Plant response rating, Goosegrass","goosegrass; PREEMERGENCE, Rate 125 g/ha",90
same,"Plant response rating, Goosegrass","goosegrass; PREEMERGENCE, Rate 250 g/ha",100
same,"Plant response rating, Guineagrass","guineagrass; POSTEMERGENCE, Rate 125 g/ha",0
same,"Plant response rating, Guineagrass","guineagrass; POSTEMERGENCE, Rate 250 g/ha",0
same,"Plant response rating, Guineagrass","guineagrass; PREEMERGENCE, Rate 125 g/ha",0
same,"Plant response rating, Guineagrass","guineagrass; PREEMERGENCE, Rate 250 g/ha",100
same,"Plant response rating, Itchgrass","itchgrass; POSTEMERGENCE, Rate 125 g/ha",0
same,"Plant response rating, Itchgrass","itchgrass; POSTEMERGENCE, Rate 250 g/ha",0
same,"Plant response rating, Itchgrass","itchgrass; PREEMERGENCE, Rate 125 g/ha",100
same,"Plant response rating, Itchgrass","itchgrass; PREEMERGENCE, Rate 250 g/ha",40
same,"Plant response rating, Johnsongrass","johnsongrass; POSTEMERGENCE, Rate 125 g/ha",0
same,"Plant response rating, Johnsongrass","johnsongrass; POSTEMERGENCE, Rate 250 g/ha",0
same,"Plant response rating, Johnsongrass","johnsongrass; PREEMERGENCE, Rate 125 g/ha",0
same,"Plant response rating, Johnsongrass","johnsongrass; PREEMERGENCE, Rate 250 g/ha",0
same,"Plant response rating, Large Crabgrass","large crabgrass; POSTEMERGENCE, Rate 125 g/ha",0
same,"Plant response rating, Large Crabgrass","large crabgrass; POSTEMERGENCE, Rate 250 g/ha",0
same,"Plant response rating, Large Crabgrass","large crabgrass; PREEMERGENCE, Rate 125 g/ha",80
same,"Plant response rating, Large Crabgrass","large crabgrass; PREEMERGENCE, Rate 250 g/ha",100
same,"Plant response rating, Peanuts","peanut; POSTEMERGENCE, Rate 125 g/ha",0
same,"Plant response rating, Peanuts","peanut; POSTEMERGENCE, Rate 250 g/ha",0
same,"Plant response rating, Peanuts","peanut; PREEMERGENCE, Rate 125 g/ha",0
same,"Plant response rating, Peanuts","peanut; PREEMERGENCE, Rate 250 g/ha",0
same,"Plant response rating, Pit Morninglory","pitted morningglory; POSTEMERGENCE, Rate 125 g/ha",0
same,"Plant response rating, Pit Morninglory","pitted morningglory; POSTEMERGENCE, Rate 250 g/ha",70
same,"Plant response rating, Pit Morninglory","pitted morningglory; PREEMERGENCE, Rate 125 g/ha",0
same,"Plant response rating, Pit Morninglory","pitted morningglory; PREEMERGENCE, Rate 250 g/ha",30
same,"Plant response rating, S. Sandbur","sandbur; POSTEMERGENCE, Rate 125 g/ha",0
same,"Plant response rating, S. Sandbur","sandbur; POSTEMERGENCE, Rate 250 g/ha",0
same,"Plant response rating, S. Sandbur","sandbur; PREEMERGENCE, Rate 125 g/ha",0
same,"Plant response rating, S. Sandbur","sandbur; PREEMERGENCE, Rate 250 g/ha",0
same,"Plant response rating, Smooth Crabgras","smooth crabgrass; POSTEMERGENCE, Rate 125 g/ha",0
same,"Plant response rating, Smooth Crabgras","smooth crabgrass; POSTEMERGENCE, Rate 250 g/ha",0
same,"Plant response rating, Smooth Crabgras","smooth crabgrass; PREEMERGENCE, Rate 125 g/ha",0
same,"Plant response rating, Smooth Crabgras","smooth crabgrass; PREEMERGENCE, Rate 250 g/ha",100
same,"Plant response rating, Yellow Nutsedge",yellow nutsedge; POSTEMERGENCE,0
same,"Plant response rating, Yellow Nutsedge",yellow nutsedge; PREEMERGENCE,0
